What was measured:
LP-1 cells = experiment: Proliferation assay (CellTiter-Glo), LP-1; format: cell-based, human; conditions: LP-1, 48 h treatment
Experimental: Human MM cell lines used were as follows: NCI-H929, OPM-2, LP-1, RPMI-8226, U266 (DSMZ, Braunschweig, Germany). Cell lines were cultured in RPMI 1640 medium (Biochrom, Berlin, Germany) supplemented with 10% heat-inactivated fetal calf serum (FCS, Gibco, Karlsruhe, Germany), 1 mM sodium pyruvate and 100 units/ml penicillin and 100 μg/ml streptomycin (Gibco). Human osteoclasts were obtained as described in the reference of Zavrski I, Krebbel H, Wildemann B, et al. Proteasome inhibitors abrogate osteoclast differentiation and osteoclast function. Biochem Biophys Res Commun. 2005; 333:200-205. Briefly, peripheral blood mononuclear cells (PBMC) were isolated from whole blood of healthy volunteers, using a Ficoll-Hypaque density gradient. The adherent fraction of the isolated mononuclear cells was cultured for 21 days in MEM medium (Sigma-Aldrich Chemie, Taufkirchen, Germany) supplemented with 10% FCS, 100 U/ml penicillin, 100 μg/ml streptomycin, 50 ng/ml M-CSF, and 25 ng/ml RANKL (osteoclastogenic medium), before coculture experiments and treatment with the inventive compounds started. […]
For assaying proliferation/viability of cells CellTiter-Glo Luminescent Cell Viability Assay (Promega, Mannheim, Germany) was used. In this assay the number of viable cells at a given time point is determined by quantification of ATP present, which serves as a measure of metabolically active cells. […]

OBL = experiment: Viability assay, OBL; format: cell-based, human
Experimental: (§1) For assaying proliferation/viability of cells CellTiter-Glo Luminescent Cell Viability Assay (Promega, Mannheim, Germany) was used. In this assay the number of viable cells at a given time point is determined by quantification of ATP present, which serves as a measure of metabolically active cells. The assay was carried out according to manufacturer's protocol. Briefly, cells were plated in 96-well plates at 10,000 cells per well in 100 μl medium and treated with indicated amounts of GSI15, with DMSO as solvent control or left untreated. Each treatment was done in four independent replicates in different wells. 24 h and 48 h after start of treatment 30 μl per well were transferred into an opaque-walled plate and lysed using CellTiter-Glo solution. Luminescence was recorded and integrated for two seconds per well. Average values were calculated and normalized to the respective untreated sample.

MSC = experiment: Viability assay, MSC; format: cell-based, human
Experimental: as §1

[1] = Physiological compatibility, parenteral administration in mice; conditions: in vivo, other: parenteral, mouse
Experimental: The compound according to example 1 was tested for its physiological compatibility via parenteral administration in mice. The LD50 (parenteral, mouse) is 800 mg/kg. Accordingly compound 1 can be considered to be physiologically compatible.

male Sprague-Dawley rats = experiment: PAN-model of albuminuric glomerular disease; format: in vivo, rat; conditions: day 7, 500 μg/100 g rat i.p. once per day, compared to PAN alone
Experimental: For the in vivo studies male Sprague-Dawley rats were purchased from Charles River and treated with puromycin aminoglycoside (PAN) to induce albuminuric glomerular disease as described previously (Niranjan et al., “The Notch pathway in podocytes plays a role in the development of glomerular disease.” Nat. Med. 14: 290-298, 2008). Rats were injected PAN (150 mg/kg) once. The test compounds were administered intraperitoneally (500 μg/100 g rat) once per day (n=4 animals per group). Injection of test compounds were started one day after PAN injection. All studies were performed in accordance with the European Union normative. As a positive control one group of rats received gamma secretase inhibitor DAPT.
Urinary albumine was measured at the indicated days as described previously (Sanchez-Nino et al., “The MIF receptor CD74 in diabetic podocyte injury”. J. Am. Soc. Nephrol. 20: 353-362, 2009). For total protein measurement urine samples were centrifuged and pellets were diluted in distilled water. Exton reagent (230 mM sulfosalic acid, 1.4 M sodium sulfate) was added and after 10 minutes absorbance was measured at 620 nm.

With CC(C)c1ccc(S(=O)(=O)Nc2cccnc2Oc2ccc(Cl)cc2)cc1 [Example 1, N-(2-(4-chlorophenoxy)pyridin-3-yl)-4-isopropylbenzenesulfonamide] the “concentration of maximum effect on proliferation” value (LP-1 cells) was 60 µM, the proliferation (LP-1 cells) was “dose-dependent reduction of proliferation” and the viability (OBL) was “no difference between untreated and GSI15 treated”. The viability (MSC) was “no difference between untreated and GSI15 treated”, the LD50 [1] was 800 mg/kg and the inhibition of albuminuria (male Sprague-Dawley rats) was 56%. For the same compound, the inhibition of proteinuria (male Sprague-Dawley rats) was 50%.
